Test results published in patent publication US20030139391A1 (priority 2000, published 2003).

System: Patients diagnosed with Alzheimer's Disease
Experiment: Adverse events and discontinuation in 5-month slow-titration trial
Format: in vivo, human
Description: Subjects in the Placebo group received 21 weeks (5 months) of placebo medication.
The safety of the drug was also monitored throughout the study. Blood samples for biochemistry and haematology and random urine sample for urinalysis were taken at each visit and at completion for all efficacy testing. Systolic and diastolic blood pressure were measured in the sitting position, pulse and vital signs were recorded at each visit.

SMILES: COc1ccc2c3c1O[C@H]1C[C@@H](O)C=C[C@@]31CCN(C)C2 [GAL, galantamine]
- Serious adverse event Cardiac failure: number (16 mg/day): 3
- Serious adverse event Dehydration: % (16 mg/day): (1.1%)
- Serious adverse event Dehydration: number (16 mg/day): 3
- Serious adverse event Diarrhea: % (16 mg/day): (1.1%)
- Serious adverse event Diarrhea: number (16 mg/day): 3
- Serious adverse event Dyspnea: % (16 mg/day): (0.7%)
- Serious adverse event Dyspnea: number (16 mg/day): 2
- Serious adverse event Fall: % (16 mg/day): (0.4%)
- Serious adverse event Fall: number (16 mg/day): 1
- Serious adverse event Gi haemorrhage: % (16 mg/day): (0.0%)
- Serious adverse event Gi haemorrhage: number (16 mg/day): 0
- Serious adverse event Injury: % (16 mg/day): (0.4%)
- Serious adverse event Injury: number (16 mg/day): 1
- Serious adverse event Myocardial infarction: % (16 mg/day): (0.4%)
- Serious adverse event Myocardial infarction: number (16 mg/day): 1
- Serious adverse event Nausea: % (16 mg/day): (0.7%)
- Serious adverse event Nausea: number (16 mg/day): 2
- Serious adverse event Pneumonia: % (16 mg/day): (0.7%)
- Serious adverse event Pneumonia: number (16 mg/day): 2
- Serious adverse event Sepsis: % (16 mg/day): (0.0%)
- Serious adverse event Sepsis: number (16 mg/day): 0
- Serious adverse event Surgical intervention: % (16 mg/day): (1.1%)
- Serious adverse event Surgical intervention: number (16 mg/day): 3
- Serious adverse event Syncope: % (16 mg/day): (1.4%)
- Serious adverse event Syncope: number (16 mg/day): 4
- Serious adverse event Thrombophlebitis deep: % (16 mg/day): (0.0%)
- Serious adverse event Thrombophlebitis deep: number (16 mg/day): 0
- Serious adverse event Transient ischemic attack: % (16 mg/day): (0.7%)
- Serious adverse event Transient ischemic attack: number (16 mg/day): 2
- Serious adverse event Urinary tracq infection: % (16 mg/day): (0.7%)
- Serious adverse event Urinary tracq infection: number (16 mg/day): 2
- Serious adverse event Vomiting: % (16 mg/day): (0.7%)
- Serious adverse event Vomiting: number (16 mg/day): 2
- Syncope: % of patients (16 mg/day): (1.8%)
- Syncope: number of patients (16 mg/day): 5
- Total discontinued (DC): % (16 mg/day): 22%
- Total discontinued (DC): N (16 mg/day): 60
- Total patients with any SAE: % (16 mg/day): (10.0%)
- Total patients with any SAE: number (16 mg/day): 28
- Urinary tract infection: % of patients (16 mg/day): (8.2%)
- Urinary tract infection: number of patients (16 mg/day): 23
- Vomiting: % of patients (16 mg/day): (6.1%)
- Vomiting: number of patients (16 mg/day): 17
- Weight decrease: % of patients (16 mg/day): (5.4%)
- Weight decrease: number of patients (16 mg/day): 15
- Agitation: % of patients (24 mg/day): (8.1%)
- Agitation: number of patients (24 mg/day): 22
- Anorexia: % of patients (24 mg/day): (8.8%)
- Anorexia: number of patients (24 mg/day): 24
- Bradycardia: % of patients (24 mg/day): (2.9%)
- Bradycardia: number of patients (24 mg/day): 8
- Convulsions: % of patients (24 mg/day): (0.4%)
- Convulsions: number of patients (24 mg/day): 1
- DC due to adverse event: % (24 mg/day): 10%
- DC due to adverse event: N (24 mg/day): 27
- DC due to inefficacy: % (24 mg/day): 1%
- DC due to inefficacy: N (24 mg/day): 2
- Depression: % of patients (24 mg/day): (8.%)
- Depression: number of patients (24 mg/day): 22
- Diarrhea: % of patients (24 mg/day): (5.5%)
- Diarrhea: number of patients (24 mg/day): 15
- Dizziness: % of patients (24 mg/day): (7.0%)
- Dizziness: number of patients (24 mg/day): 19
- Dyspepsia: % of patients (24 mg/day): (5.5%)
- Dyspepsia: number of patients (24 mg/day): 15
- Edema peripheral: % of patients (24 mg/day): (2.6%)
- Edema peripheral: number of patients (24 mg/day): 7
- Fall: % of patients (24 mg/day): (4.4%)
- Fall: number of patients (24 mg/day): 12
- Fatigue: % of patients (24 mg/day): (4.8%)
- Fatigue: number of patients (24 mg/day): 13
- Headache: % of patients (24 mg/day): (4.8%)
- Headache: number of patients (24 mg/day): 13
- Injury: % of patients (24 mg/day): (5.9%)
- Injury: number of patients (24 mg/day): 16
- Muscle weakness: % of patients (24 mg/day): (0.4%)
- Muscle weakness: number of patients (24 mg/day): 1
- Nausea: % of patients (24 mg/day): (16.5%)
- Nausea: number of patients (24 mg/day): 45
- Rhinitis: % of patients (24 mg/day): (4.0%)
- Rhinitis: number of patients (24 mg/day): 11
- Serious adverse event Abdominal pain: % (24 mg/day): (0.0%)
- Serious adverse event Abdominal pain: number (24 mg/day): 0
- Serious adverse event Agitation: % (24 mg/day): (0.0%)
- Serious adverse event Agitation: number (24 mg/day): 0
- Serious adverse event Asthenia: % (24 mg/day): (0.4%)
- Serious adverse event Asthenia: number (24 mg/day): 1
- Serious adverse event Basal cell carcinoma: % (24 mg/day): (0.7%)
- Serious adverse event Basal cell carcinoma: number (24 mg/day): 2
- Serious adverse event Breast neoplasm female: % (24 mg/day): (0.0%)
- Serious adverse event Breast neoplasm female: number (24 mg/day): 0
- Serious adverse event Cardiac failure: % (24 mg/day): (0.0%)
- Serious adverse event Cardiac failure: number (24 mg/day): 0
- Serious adverse event Dehydration: % (24 mg/day): (0.0%)
- Serious adverse event Dehydration: number (24 mg/day): 0
- Serious adverse event Diarrhea: % (24 mg/day): (0.0%)
- Serious adverse event Diarrhea: number (24 mg/day): 0
- Serious adverse event Dyspnea: % (24 mg/day): (1.1%)
- Serious adverse event Dyspnea: number (24 mg/day): 3.
- Serious adverse event Fall: % (24 mg/day): (1.1%)
- Serious adverse event Fall: number (24 mg/day): 3
- Serious adverse event Gi haemorrhage: % (24 mg/day): (0.7%)
- Serious adverse event Gi haemorrhage: number (24 mg/day): 2
- Serious adverse event Injury: % (24 mg/day): (1.8%)
- Serious adverse event Injury: number (24 mg/day): 5
- Serious adverse event Myocardial infarction: % (24 mg/day): (0.4%)
- Serious adverse event Myocardial infarction: number (24 mg/day): 1
- Serious adverse event Nausea: % (24 mg/day): (0.0%)
- Serious adverse event Nausea: number (24 mg/day): 0
- Serious adverse event Pneumonia: % (24 mg/day): (1.1%)
- Serious adverse event Pneumonia: number (24 mg/day): 3
- Serious adverse event Sepsis: % (24 mg/day): (0.0%)
- Serious adverse event Sepsis: number (24 mg/day): 0
- Serious adverse event Surgical intervention: % (24 mg/day): (0.0%)
- Serious adverse event Surgical intervention: number (24 mg/day): 0
- Serious adverse event Syncope: % (24 mg/day): (1.8%)
- Serious adverse event Syncope: number (24 mg/day): 5
- Serious adverse event Thrombophlebitis deep: % (24 mg/day): (0.7%)
- Serious adverse event Thrombophlebitis deep: number (24 mg/day): 2
- Serious adverse event Transient ischemic attack: % (24 mg/day): (0.0%)
- Serious adverse event Transient ischemic attack: number (24 mg/day): 0
- Serious adverse event Urinary tracq infection: % (24 mg/day): (0.0%)
- Serious adverse event Urinary tracq infection: number (24 mg/day): 0
- Serious adverse event Vomiting: % (24 mg/day): (0.4%)
- Serious adverse event Vomiting: number (24 mg/day): 1
- Syncope: % of patients (24 mg/day): (3.3%)
- Syncope: number of patients (24 mg/day): 9
- Total discontinued (DC): % (24 mg/day): 22%
- Total discontinued (DC): N (24 mg/day): 61
- Total patients with any SAE: % (24 mg/day): (12.8%)
- Total patients with any SAE: number (24 mg/day): 35
- Urinary tract infection: % of patients (24 mg/day): (8.1%)
- Urinary tract infection: number of patients (24 mg/day): 22
- Vomiting: % of patients (24 mg/day): (9.9%)
- Vomiting: number of patients (24 mg/day): 27
- Weight decrease: % of patients (24 mg/day): (4.8%)
- Weight decrease: number of patients (24 mg/day): 13
